# Biological target: T1, Human Leukocyte Elastase (Homo sapiens, UniProt P08246)
# T1 construct: fresh human leukocytes were obtained from a healthy donor; from tissue; host or cells: human leukocytes from a healthy donor (homogenized)
# T1 sequence (P08246 30-247 limits assumed): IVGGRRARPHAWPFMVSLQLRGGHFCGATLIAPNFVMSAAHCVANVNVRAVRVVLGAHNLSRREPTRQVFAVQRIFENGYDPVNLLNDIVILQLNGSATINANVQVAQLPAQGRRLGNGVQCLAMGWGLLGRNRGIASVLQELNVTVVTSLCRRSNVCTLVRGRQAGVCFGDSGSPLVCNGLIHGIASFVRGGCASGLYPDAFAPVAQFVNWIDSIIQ
# Assay: Inactivation of Human Leukocyte Elastase (fluorogenic substrate assay)
# Assay type: biochemical
smiles,measurement,setting,value
C#C/C=C1\CC(Cc2ccccc2)C(=O)O1 (stereo not shown) [3-Benzyl-5(E)-(prop-2-ynylidene)tetrahydro-2-furanone],irreversibility of inactivation,"0.24 nanomoles HL elastase + 4 microliters 2 mM inhibitor, 25° C., after 17 minutes chromatographed on Sephadex G-50",irreversibility of this inactivation was shown
same,kinact,"25° C., pH 7.8, substrate MeOSuc-Ala-Ala-Pro-Val-methylcoumarinamide, read-out: maximum inactivation rate",0.09 s⁻¹
same,KI (inactivation),"half-maximal inactivation rate, 25° C., pH 7.8, read-out: inhibitor concentration required for half-maximal rate",4.1 µM
same,mode of enzyme inactivation,inhibitor added after recording the uninhibited rate,inactivated in a time and concentration dependent manner

# — patent publication US4602006A, “Ynenolactone protease inhibitors” (Syntex (U.S.A.) Inc., priority 1984, dated 1986)
